Assay results reported in ChEMBL document CHEMBL3994611, “Synthesis and biological evaluation of deferiprone-resveratrol hybrids as antioxidants, Aβ1-42 aggregation inhibitors and metal-chelating agents for Alzheimer's disease” (Eur J Med Chem, 2017).
The source made the active and inactive calls. The calls are words filed in the database; no cut-off is given here.

How the values were obtained:
[1] = Binding affinity to CP645 probe-labeled Fe3+ in DMSO/MOPS buffer assessed as concentration of free Fe3+ in solution at 60 uM after 48 hrs by spectrofluorophotometric method
[2] = Antioxidant activity assessed as ABTS radical scavenging activity incubated for 10 mins under dark condition; format: functional
[3] = target: T1, Amyloid-beta precursor protein (Homo sapiens, UniProt P05067); experiment: Inhibition of HFIP-pretreated amyloid beta (1 to 42) (unknown origin) self-induced aggregation at 20 uM incubated for 24 hrs under dark condition by thioflavin-T based fluorometric assay relative to control
T1 sequence (P05067 whole entry): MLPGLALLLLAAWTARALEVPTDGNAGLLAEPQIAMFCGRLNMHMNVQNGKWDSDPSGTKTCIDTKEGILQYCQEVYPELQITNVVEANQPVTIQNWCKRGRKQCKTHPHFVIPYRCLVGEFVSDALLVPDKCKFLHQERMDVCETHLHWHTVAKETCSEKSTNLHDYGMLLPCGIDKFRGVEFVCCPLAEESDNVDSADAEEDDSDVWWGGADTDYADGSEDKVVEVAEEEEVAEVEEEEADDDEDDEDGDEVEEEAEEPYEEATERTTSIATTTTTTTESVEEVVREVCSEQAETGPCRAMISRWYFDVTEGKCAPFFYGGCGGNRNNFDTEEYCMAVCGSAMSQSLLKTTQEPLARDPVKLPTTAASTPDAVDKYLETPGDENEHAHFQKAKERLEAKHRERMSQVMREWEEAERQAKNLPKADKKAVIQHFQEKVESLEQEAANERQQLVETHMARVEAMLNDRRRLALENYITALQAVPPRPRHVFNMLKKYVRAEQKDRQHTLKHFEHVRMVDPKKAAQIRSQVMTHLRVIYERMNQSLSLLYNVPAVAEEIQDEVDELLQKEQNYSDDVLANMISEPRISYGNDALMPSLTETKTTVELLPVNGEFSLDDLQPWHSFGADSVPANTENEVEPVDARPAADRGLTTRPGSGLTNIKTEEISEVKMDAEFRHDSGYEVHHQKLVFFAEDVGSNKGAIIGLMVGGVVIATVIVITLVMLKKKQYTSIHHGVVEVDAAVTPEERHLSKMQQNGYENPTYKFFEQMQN

[4] = target: T1, Amyloid-beta precursor protein; experiment: Inhibition of HFIP-pretreated amyloid beta (1 to 42) (unknown origin) self-induced aggregation incubated for 24 hrs under dark condition by thioflavin-T based fluorometric assay
[5] = Binding affinity to Fe3+ in DMSO/MOPS buffer assessed as maximal absorbance intensity at iron to ligand ratio of 1:4 by UV-visible spectrophotometric method
[6] = (§1) Binding affinity to Fe3+ assessed as inhibition of Fe3+-induced amyloid beta (1 to 42) aggregation by measuring Fe3+-amyloid beta (1 to 42) complex fluorescence at 50 uM incubated for 24 hrs under dark condition by thioflavin-T based fluorometric assay relative to control; parameters: scale not given: the % may be the effect or the level left
[7] = (§2) Binding affinity to Cu2+ assessed as inhibition of Cu2+-induced amyloid beta (1 to 42) aggregation by measuring Cu2+-amyloid beta (1 to 42) complex fluorescence at 75 uM incubated for 24 hrs under dark condition by thioflavin-T based fluorometric assay relative to control; parameters: scale not given: the % may be the effect or the level left
[8] = Binding affinity to Fe3+ assessed as inhibition of Fe3+-induced amyloid beta (1 to 42) aggregation at 50 uM incubated for 24 hrs under dark condition by uranyl acetate staining based transmission electron microscopic method
[9] = Binding affinity to Cu2+ assessed as inhibition of Cu2+-induced amyloid beta (1 to 42) aggregation at 75 uM incubated for 24 hrs under dark condition by uranyl acetate staining based transmission electron microscopic method
[10] = as §1, with “disaggregation” for “inhibition”, “treated” for “incubated for”, “hrs after Fe3+ addition measured after 24 hrs incubation” for “hrs”
[11] = as §2, with “disaggregation” for “inhibition”, “treated” for “incubated for”, “hrs after Cu2+ addition measured after 24 hrs incubation” for “hrs”
[12] = Binding affinity to Fe3+ assessed as disaggregation of Fe3+-induced amyloid beta (1 to 42) aggregation at 50 uM incubated for 24 hrs under dark condition by uranyl acetate staining based transmission electron microscopic method
[13] = Binding affinity to Cu2+ assessed as disaggregation of Cu2+-induced amyloid beta (1 to 42) aggregation at 75 uM incubated for 24 hrs under dark condition by uranyl acetate staining based transmission electron microscopic method
[14] = Binding affinity to Fe3+ assessed as cumulative stability constant
[15] = Binding affinity to Cu2+ assessed as cumulative stability constant
[16] = Binding affinity to Zn2+ assessed as cumulative stability constant

SMILES | log free Fe3+ concentration [1] | IC50 [2] [µM] | inhibition [3] [%] | IC50 [4] [µM] | further results
CN(C)c1ccc(/C=C/c2cc(=O)c(O)c[nH]2)cc1 | -20.1 | 3.41 | 49.6 | 29.2 | –
O=c1cc(/C=C/c2ccc(O)cc2)[nH]cc1O | -19.6 | 1.73 | 58.4 | 10.7 | Activity [5]: Active; Activity [6]: 62%; Activity [7]: 65%; Activity [8]: Active; Activity [9]: Active; Activity [10]: 25%; Activity [11]: 69%; Activity [12]: Active; Activity [13]: Active
Cn1cc(O)c(=O)cc1/C=C/c1ccc(O)cc1 | -20.1 | 1.37 | 52.5 | 15.4 | –
Cn1cc(O)c(=O)cc1/C=C/c1cccc(F)c1 | -20.1 | 1.31 | 52.4 | 19.4 | –
O=c1cc(/C=C/c2ccccc2)[nH]cc1O | -21 | 4.03 | 38.2 | – | –
Oc1ccc(/C=C/c2cc(O)cc(O)c2)cc1 [RESVERATROL] | – | 0.76 | – | – | Activity [6]: 87%; Activity [7]: 86%; Activity [10]: 58%; Activity [11]: 35%; Activity [12]: Active; Activity [13]: Active
O=c1cc(/C=C/c2cc(O)cc(O)c2)[nH]cc1O | -19.2 | 0.88 | 18.2 | – | –
COc1ccccc1/C=C/c1cc(=O)c(O)cn1C | -20.6 | 4.17 | 56.8 | 12.5 | –
CCOc1ccc(/C=C/c2cc(=O)c(O)cn2C)cc1 | -19 | 4.02 | 65.3 | 8.94 | Activity [6]: 64%; Activity [7]: 57%; Activity [8]: Active; Activity [9]: Active; Activity [10]: 16%; Activity [11]: 47%; Activity [12]: Active; Activity [13]: Active
COc1cc(/C=C/c2cc(=O)c(O)c[nH]2)cc(OC)c1 | -21.6 | 11.4 | 35.3 | – | –
Cn1cc(O)c(=O)cc1/C=C/c1ccccc1 | -19.8 | 2.11 | 21.6 | – | –
O=c1cc(/C=C/c2ccc([N+](=O)[O-])cc2)[nH]cc1O | -19.5 | 4.79 | – | – | –
Cn1cc(O)c(=O)cc1/C=C/c1ccccc1O | -20.3 | 1.83 | 31.1 | – | –
COc1cc(/C=C/c2cc(=O)c(O)cn2C)cc(OC)c1 | -21.2 | 3.74 | 28.3 | – | –
O=c1cc(/C=C/c2cccc(F)c2)[nH]cc1O | -20.2 | 6.29 | 53.2 | 19 | –
CN(C)c1ccc(/C=C/c2cc(=O)c(O)cn2C)cc1 | -19.2 | 2.52 | 44.9 | – | –
Cn1cc(O)c(=O)cc1/C=C/c1ccc([N+](=O)[O-])cc1 | -18.4 | 19.2 | – | – | –
Cn1cc(O)c(=O)cc1/C=C/c1cc(O)cc(O)c1 | -20.1 | 1.19 | 22.4 | – | –
Cc1c(C)c2c(c(C)c1O)CCC(C)(C(=O)O)O2 (stereo not drawn) [TROLOX] | – | 3.89 | – | – | –
COc1ccccc1/C=C/c1cc(=O)c(O)c[nH]1 | -20.2 | 6.74 | 54.9 | 16.5 | –
Cc1c(O)c(=O)ccn1C | -20.6 | – | – | – | K [14]: 37.2; K [15]: 21.7; K [16]: 13.5
O=c1cc(/C=C/c2ccccc2O)[nH]cc1O | -20.2 | 2.21 | 49.3 | 21.8 | –
CCOc1ccc(/C=C/c2cc(=O)c(O)c[nH]2)cc1 | -20.1 | 8.12 | 51.5 | 23.4 | –
O=c1cc(/C=C/c2ccc(Cl)cc2)[nH]cc1O | -19.5 | 11.5 | 11.6 | – | –
Cn1cc(O)c(=O)cc1/C=C/c1ccc(Cl)cc1 | -20.8 | 5.72 | 14.5 | – | –
